Assay results reported in article PMC4290489, “Identification of multiple salicylic acid-binding proteins using two high throughput screens” (Frontiers in Plant Science, 2015).

What was measured:
Assay type in all cases: binding
GSR2 = target: T1, GSR2 (Arabidopsis thaliana, UniProt Q8LCE1); experiment: UV photo-crosslinking, anti-SA immunoblot; settings: 50 uM 4AzSA, PBS, on ice, 254 nm UV; covalent; competed by SA
T1 construct: gene GLN1-2; N-terminal His6 (pET28a), from E. coli
T1 sequence (Q8LCE1 1-356): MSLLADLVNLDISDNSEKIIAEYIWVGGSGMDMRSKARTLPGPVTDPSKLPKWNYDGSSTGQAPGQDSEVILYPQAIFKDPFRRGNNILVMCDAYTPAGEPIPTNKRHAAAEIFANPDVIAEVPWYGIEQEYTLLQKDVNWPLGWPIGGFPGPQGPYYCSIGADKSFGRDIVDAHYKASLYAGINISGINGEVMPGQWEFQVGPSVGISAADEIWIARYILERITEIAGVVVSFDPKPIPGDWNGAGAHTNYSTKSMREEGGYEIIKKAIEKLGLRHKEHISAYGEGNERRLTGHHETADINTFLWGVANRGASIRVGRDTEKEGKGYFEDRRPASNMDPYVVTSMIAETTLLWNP

TPPII = target: T2, TPPII (Arabidopsis thaliana, UniProt F4JVN6); experiment: UV photo-crosslinking, anti-SA immunoblot; settings: 50 uM 4AzSA, PBS, on ice, 254 nm UV; covalent; competed by SA
T2 construct: gene TPP2; N-terminal His6 (pET28a), from E. coli
T2 sequence (F4JVN6 1-1380): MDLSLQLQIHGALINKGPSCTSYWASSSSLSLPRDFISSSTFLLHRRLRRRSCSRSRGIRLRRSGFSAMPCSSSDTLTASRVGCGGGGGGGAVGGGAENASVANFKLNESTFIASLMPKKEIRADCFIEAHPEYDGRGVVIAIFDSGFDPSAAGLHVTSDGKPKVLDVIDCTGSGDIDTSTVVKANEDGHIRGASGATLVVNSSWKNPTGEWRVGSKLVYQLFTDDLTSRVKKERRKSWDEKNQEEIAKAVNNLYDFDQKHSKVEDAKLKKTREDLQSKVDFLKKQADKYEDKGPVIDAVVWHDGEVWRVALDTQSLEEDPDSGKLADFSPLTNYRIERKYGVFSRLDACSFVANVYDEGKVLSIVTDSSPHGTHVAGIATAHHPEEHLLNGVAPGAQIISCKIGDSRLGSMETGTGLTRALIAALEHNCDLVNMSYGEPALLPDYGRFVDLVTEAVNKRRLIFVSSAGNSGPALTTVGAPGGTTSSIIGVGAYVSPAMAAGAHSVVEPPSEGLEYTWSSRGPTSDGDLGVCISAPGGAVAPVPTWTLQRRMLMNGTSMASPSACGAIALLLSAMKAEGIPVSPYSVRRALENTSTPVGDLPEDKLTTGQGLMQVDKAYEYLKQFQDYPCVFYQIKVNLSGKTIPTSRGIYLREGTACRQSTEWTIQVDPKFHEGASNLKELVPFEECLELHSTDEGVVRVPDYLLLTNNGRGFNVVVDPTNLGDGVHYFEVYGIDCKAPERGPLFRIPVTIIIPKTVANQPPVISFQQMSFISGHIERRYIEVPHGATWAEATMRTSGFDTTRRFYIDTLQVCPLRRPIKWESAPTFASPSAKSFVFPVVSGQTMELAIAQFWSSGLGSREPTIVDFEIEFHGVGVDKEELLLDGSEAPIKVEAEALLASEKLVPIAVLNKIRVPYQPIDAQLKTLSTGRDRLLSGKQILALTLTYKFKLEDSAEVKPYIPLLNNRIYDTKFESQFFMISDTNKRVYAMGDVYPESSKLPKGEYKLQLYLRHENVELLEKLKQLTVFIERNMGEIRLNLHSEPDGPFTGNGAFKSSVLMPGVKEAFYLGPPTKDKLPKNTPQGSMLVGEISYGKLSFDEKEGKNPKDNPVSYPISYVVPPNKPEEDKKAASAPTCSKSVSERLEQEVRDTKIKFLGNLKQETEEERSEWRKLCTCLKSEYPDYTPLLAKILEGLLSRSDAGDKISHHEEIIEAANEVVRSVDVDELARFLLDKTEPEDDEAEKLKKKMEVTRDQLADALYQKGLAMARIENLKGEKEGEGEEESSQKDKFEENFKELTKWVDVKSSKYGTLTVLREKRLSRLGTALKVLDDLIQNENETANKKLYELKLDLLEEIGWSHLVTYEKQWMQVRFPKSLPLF

GPX2 [1] = target: T3, GPX2 (Arabidopsis thaliana, UniProt O04922); experiment: UV photo-crosslinking, anti-SA immunoblot; settings: 50 uM 4AzSA, PBS, on ice, 254 nm UV; covalent; competed by SA
T3 construct: N-terminal His6 (pET28a), from E. coli
T3 sequence (O04922 1-169): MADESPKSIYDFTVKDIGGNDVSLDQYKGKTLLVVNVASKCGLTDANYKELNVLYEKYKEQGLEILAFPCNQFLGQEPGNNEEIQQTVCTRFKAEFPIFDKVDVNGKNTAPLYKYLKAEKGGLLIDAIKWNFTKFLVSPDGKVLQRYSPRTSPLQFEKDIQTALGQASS

LOX2 = target: T4, LOX2 (Arabidopsis thaliana, UniProt P38418); experiment: SPR competition on 3AESA chip; competition of 4AzSA photo-crosslinking; settings: 1-5 mM SA, HBS-EP pH 7.4 (SPR); competes with 3AESA and 4AzSA
T4 construct: N-terminal His6 (pET28a), from E. coli
T4 sequence (P38418 57-896): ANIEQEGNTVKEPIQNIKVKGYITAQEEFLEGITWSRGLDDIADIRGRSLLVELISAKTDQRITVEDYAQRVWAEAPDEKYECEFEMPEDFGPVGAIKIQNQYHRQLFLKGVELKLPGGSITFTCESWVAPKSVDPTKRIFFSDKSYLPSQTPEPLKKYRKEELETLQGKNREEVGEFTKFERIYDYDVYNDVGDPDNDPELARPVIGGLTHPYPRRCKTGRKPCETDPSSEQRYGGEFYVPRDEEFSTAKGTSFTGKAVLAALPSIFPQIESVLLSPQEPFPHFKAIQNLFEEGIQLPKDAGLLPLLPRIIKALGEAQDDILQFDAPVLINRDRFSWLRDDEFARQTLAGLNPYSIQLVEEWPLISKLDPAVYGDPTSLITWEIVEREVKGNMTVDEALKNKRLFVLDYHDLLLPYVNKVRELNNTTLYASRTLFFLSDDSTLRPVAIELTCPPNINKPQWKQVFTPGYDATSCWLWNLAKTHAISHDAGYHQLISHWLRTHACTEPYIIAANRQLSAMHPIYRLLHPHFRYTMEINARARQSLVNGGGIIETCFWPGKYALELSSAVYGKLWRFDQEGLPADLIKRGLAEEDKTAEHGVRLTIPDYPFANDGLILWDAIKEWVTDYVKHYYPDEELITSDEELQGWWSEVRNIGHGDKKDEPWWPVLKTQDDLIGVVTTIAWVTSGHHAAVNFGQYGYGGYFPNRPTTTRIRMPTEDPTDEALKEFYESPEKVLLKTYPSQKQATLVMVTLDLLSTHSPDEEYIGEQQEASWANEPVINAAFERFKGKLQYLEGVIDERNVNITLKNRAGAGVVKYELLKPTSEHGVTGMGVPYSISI

GPX2 [2] = target: T3, GPX2; experiment: as above; settings: 1-5 mM SA, HBS-EP pH 7.4 (SPR); competes with 3AESA and 4AzSA

SMILES	UV photo-crosslinking, anti-SA immunoblot (GSR2)	UV photo-crosslinking, anti-SA immunoblot (TPPII)	UV photo-crosslinking, anti-SA immunoblot (GPX2 [1])	SPR competition on 3AESA chip; competition of 4AzSA photo-crosslinking (LOX2)	SPR competition on 3AESA chip; competition of 4AzSA photo-crosslinking (GPX2 [2])
[N-]=[N+]=Nc1ccc(C(=O)O)c(O)c1 [4AzSA]	bound 3AESA and crosslinked to 4AzSA in an SA-inhibitable manner, indicating that they are SABPs	These five proteins also bound and crosslinked to 4AzSA	bound 3AESA and crosslinked to 4AzSA in an SA-inhibitable manner, indicating that they are SABPs		
O=C(O)c1ccccc1O [SA]				SA competes with 3AESA and 4AzSA for binding by TRX-m1, TPPII, SHM4, and LOX2	bound 3AESA and crosslinked to 4AzSA in an SA-inhibitable manner, indicating that they are SABPs
